Laboratory results published in US12384772B2, “Inhibitors” (VIVORYON THERAPEUTICS N.V., priority 2017, dated 2025).
Like-named read-outs stand apart in the source and are kept apart here.

Target: Glutaminyl cyclase (QC) (Homo sapiens (Human), UniProt Q16769)
Experiment: Glutaminyl cyclase assay, determination of IC50 values and calculation of Ki values (H-Gln-AMC substrate, pGAP auxiliary enzyme; pH 8.0 or pH 6.0)
Type: biochemical
Description: 10 mM compound stock solutions were prepared in DMSO. For IC50 determination compound stocks were serially diluted (1:3) in DMSO.
All measurements were performed with an EnSpire Perkin Elmer multimode reader using glutaminyl-7-amino-4-methylcoumarin (H-Gin-AMC) as substrate and recombinant pyroglutamyl aminopeptidase (pGAP) as auxiliary enzyme. Reactions were carried out at ambient temperature in black 96-well half area microplates. Each sample consisted of 1 μl test compound solution or solvent (DMSO) and 49 μl QC appropriately diluted in assay buffer (50 mM Tris/HCl, pH 8.0 or 50 mM MES buffer, pH=6.0). After a 10 min preincubation at ambient temperature the enzyme reaction was started by adding 50 μl of Gln-AMC-substrate/pGAP mixture in assay buffer. Final substrate concentrations were 50 and 200 μM for measurement at pH 8.0 or 6.0, respectively. Release of flourogenic AMC were recorded at excitation/emission wavelengths of 380/460 nm. Initial velocity of the enzyme reaction was calculated by linear regression of the first 10 data points using the Enspire Manager software. Final evaluation and calculation of IC50s were performed using GraphPad Prism software.
Ki-values were calculated according to the following formula: Ki=IC50/(1+[S]/Km), where: […]

[1] = pH 6, read-out: hQC Ki [μM] pH6
[2] = pH 8, read-out: hQC Ki [μM] pH8

Sequence of Glutaminyl cyclase (QC) (Q16769 29-361): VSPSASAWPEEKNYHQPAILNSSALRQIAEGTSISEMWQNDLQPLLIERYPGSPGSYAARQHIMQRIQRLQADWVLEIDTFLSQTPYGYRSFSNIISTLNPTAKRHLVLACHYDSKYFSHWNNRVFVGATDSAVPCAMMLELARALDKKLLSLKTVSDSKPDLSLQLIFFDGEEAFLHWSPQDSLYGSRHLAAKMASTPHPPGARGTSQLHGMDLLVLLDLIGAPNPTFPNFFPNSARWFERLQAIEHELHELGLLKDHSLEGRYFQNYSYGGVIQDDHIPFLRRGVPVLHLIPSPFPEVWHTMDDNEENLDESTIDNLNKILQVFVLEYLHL

| Ki [1] [µM] | Ki [2] [µM] | SMILES |
| --- | --- | --- |
| 9.52 | 2.96 | COc1ccc(-c2ncccc2NCc2ccc3[nH]cnc3c2)cc1 [O4, N-(1H-1,3-benzodiazol-5-ylmethyl)-2-(4-methoxyphenyl)pyridin-3-amine] |
| 2.74 | 2.41 | COc1ccc(-c2cccnc2NCc2ccc3[nH]cnc3c2)cc1 [O5, N-(1H-1,3-benzodiazol-5-ylmethyl)-3-(4-methoxyphenyl)pyridin-2-amine] |
| – | 18.3 | COc1ccc(-c2cncnc2NCc2ccc3[nH]cnc3c2)cc1 [O8, N-(1H-1,3-benzodiazol-5-ylmethyl)-5-(4-methoxyphenyl)pyrimidin-4-amine] |
| 1.9 | 2.21 | COc1ccc(-c2nccnc2NCc2ccc3[nH]cnc3c2)cc1 [O9, N-(1H-1,3-benzodiazol-5-ylmethyl)-3-(4-methoxyphenyl)pyrazin-2-amine] |
| 0.13 | 0.42 | COc1ccc(-c2nccnc2NCc2ccc3[nH]cnc3c2)cc1OC [O12, N-(1H-1,3-benzodiazol-5-ylmethyl)-3-(3,4-dimethoxyphenyl)pyrazin-2-amine] |
| 10.5 | 11.7 | Fc1ccc(-c2nccnc2NCc2ccc3[nH]cnc3c2)cc1 [O15, N-(1H-1,3-benzodiazol-5-ylmethyl)-3-(4-fluorophenyl)pyrazin-2-amine] |
| 4.89 | 6.83 | Fc1cccc(NCc2ccc3[nH]cnc3c2)c1-c1ccc(Cl)cc1 [O22, N-(1H-1,3-benzodiazol-5-ylmethyl)-2-(4-chlorophenyl)-3-fluoroaniline] |
| 5.81 | 9.41 | Fc1ccc(-c2c(F)cccc2NCc2ccc3[nH]cnc3c2)cc1 [O24, N-(1H-1,3-benzodiazol-5-ylmethyl)-3-fluoro-2-(4-fluorophenyl)aniline] |

Further lines, the compound ahead of its results:

| SMILES | Ki [1] [µM] | Ki [2] [µM] |
| --- | --- | --- |
| CS(=O)(=NCCCc1nnc(N)s1)c1ccc(F)cc1 (stereo not shown) [F2, 5-(3-{[(4-fluorophenyl)(methyl)oxo-λ^6-sulfanylidene]amino}propyl)-1,3,4-thiadiazol-2-amine] | 11.4 | 11.7 |
| Cn1cnnc1SCCNS(=O)(=O)c1ccc(F)cc1 [G2, 4-fluoro-N-{2-[(4-methyl-4H-1,2,4-triazol-3-yl)sulfanyl]ethyl}benzene-1-sulfonamide] | 8.84 | 11.5 |
| Nc1ncc(-c2ccc(NS(=O)(=O)c3ccc(F)cc3)cc2)s1 [I1, N-[4-(2-amino-1,3-thiazol-5-yl)phenyl]-4-fluorobenzene-1-sulfonamide] | 2.93 | 2.64 |
| Nc1ncc(C2CCN(S(=O)(=O)c3ccc(F)cc3)CC2)s1 [M1, 5-[1-(4-fluorobenzenesulfonyl)piperidin-4-yl]-1,3-thiazol-2-amine] | 1.32 | 1.7 |
| Nc1nnc(C2CCN(S(=O)(=O)c3ccc(F)cc3)CC2)s1 [M2, 5-[1-(4-fluorobenzenesulfonyl)piperidin-4-yl]-1,3,4-thiadiazol-2-amine] | 1.18 | 1.6 |
| Cn1cnnc1C1CCN(S(=O)(=O)c2ccc(F)cc2)CC1 [N1, 1-(4-fluorobenzenesulfonyl)-4-(4-methyl-4H-1,2,4-triazol-3-yl)piperidine] | 3.05 | 3.3 |
| COc1ccc(-c2ccccc2NCc2ccc3[nH]cnc3c2)cc1 [O3, N-(1H-1,3-benzodiazol-5-ylmethyl)-2-(4-methoxyphenyl)aniline] | 1.44 | 1.65 |
| COc1ccc(-c2cnccc2NCc2ccc3[nH]cnc3c2)cc1 [O6, N-(1H-1,3-benzodiazol-5-ylmethyl)-3-(4-methoxyphenyl)pyridin-4-amine] | 15.1 | 10.8 |
| COc1ccc(-c2ccncc2NCc2ccc3[nH]cnc3c2)cc1 [O7, N-(1H-1,3-benzodiazol-5-ylmethyl)-4-(4-methoxyphenyl)pyridin-3-amine] | 11.1 | 4.24 |
| COc1ccc(-c2cnccc2NCc2ccc3[nH]cnc3c2)cc1OC [O10, N-(1H-1,3-benzodiazol-5-ylmethyl)-3-(3,4-dimethoxyphenyl)pyridin-4-amine] | 1.63 | 0.88 |
| c1ccc(Oc2ccc(-c3ccccc3NCc3ccc4[nH]cnc4c3)cc2)cc1 [O16, N-(1H-1,3-benzodiazol-5-ylmethyl)-2-(4-phenoxyphenyl)aniline] | 4.34 | 2.11 |
| c1ccc(-c2ccc(OC3CCCCC3)cc2)c(NCc2ccc3[nH]cnc3c2)c1 [O17, N-(1H-1,3-benzodiazol-5-ylmethyl)-2-[4-(cyclohexyloxy)phenyl]aniline] | 2.03 | 4.17 |
| CC(C)Oc1ccc(-c2ccccc2NCc2ccc3[nH]cnc3c2)cc1 [O19, N-(1H-1,3-benzodiazol-5-ylmethyl)-2-[4-(propan-2-yloxy)phenyl]aniline] | 1.53 | 3.39 |
| COc1ccc(-c2c(C)cccc2NCc2ccc3[nH]cnc3c2)cc1 [O20, N-(1H-1,3-benzodiazol-5-ylmethyl)-2-(4-methoxyphenyl)-3-methylaniline] | 2.38 | 1.64 |
| COc1ccc(-c2c(C)cccc2NCc2ccc3[nH]cnc3c2)cc1OC [O21, N-(1H-1,3-benzodiazol-5-ylmethyl)-2-(3,4-dimethoxyphenyl)-3-methylaniline] | 0.43 | 0.42 |
| COc1ccc(-c2c(F)cccc2NCc2ccc3[nH]cnc3c2)cc1OC [O23, N-(1H-1,3-benzodiazol-5-ylmethyl)-2-(3,4-dimethoxyphenyl)-3-fluoroaniline] | 0.055 | 0.1 |
| O=S(=O)(NCc1ccc2[nH]cnc2c1)c1ccc(F)cc1 [P1, N-[(1H-1,3-benzodiazol-5-yl)methyl]-4-fluorobenzene-1-sulfonamide] | 38.3 | 24.7 |
